# Data from publication PMC4979471 (Cell Death Discovery, 2015).
# Read-outs that look alike come from different tables or passages of the source.
# How the values were obtained:
# Assay in all cases: Kinase selectivity, P33-radiolabeled assay
# Type in all cases: biochemical
# Settings in all cases: 10 μM ATP
# Aurora A = biological target: T1, Aurora A (Homo sapiens, UniProt O14965)
# T1 construct: purchased Reaction Biology Corp
# T1 sequence (O14965 1-403): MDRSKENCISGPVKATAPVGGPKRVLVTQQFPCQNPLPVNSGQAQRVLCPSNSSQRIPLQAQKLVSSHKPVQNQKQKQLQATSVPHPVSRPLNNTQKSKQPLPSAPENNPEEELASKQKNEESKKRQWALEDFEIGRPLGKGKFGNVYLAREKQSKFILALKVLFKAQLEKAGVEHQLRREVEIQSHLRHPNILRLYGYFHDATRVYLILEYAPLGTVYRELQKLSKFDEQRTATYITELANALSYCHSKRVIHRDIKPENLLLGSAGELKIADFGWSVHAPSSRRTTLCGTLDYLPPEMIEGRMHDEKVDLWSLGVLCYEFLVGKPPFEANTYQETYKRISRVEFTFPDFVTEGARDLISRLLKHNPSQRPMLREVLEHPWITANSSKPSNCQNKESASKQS
# Procedure, shortened: (§1)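 Each enzyme was exposed to 10 μM compound, with duplicate measurements, in reactions containing 10 μM ATP. Numbers are remaining activity as a percent of the vehicle (DMSO) signal.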
# BLK = biological target: T2, BLK (Homo sapiens, UniProt P51451)
# T2 construct: purchased Reaction Biology Corp
# T2 sequence (P51451 whole entry): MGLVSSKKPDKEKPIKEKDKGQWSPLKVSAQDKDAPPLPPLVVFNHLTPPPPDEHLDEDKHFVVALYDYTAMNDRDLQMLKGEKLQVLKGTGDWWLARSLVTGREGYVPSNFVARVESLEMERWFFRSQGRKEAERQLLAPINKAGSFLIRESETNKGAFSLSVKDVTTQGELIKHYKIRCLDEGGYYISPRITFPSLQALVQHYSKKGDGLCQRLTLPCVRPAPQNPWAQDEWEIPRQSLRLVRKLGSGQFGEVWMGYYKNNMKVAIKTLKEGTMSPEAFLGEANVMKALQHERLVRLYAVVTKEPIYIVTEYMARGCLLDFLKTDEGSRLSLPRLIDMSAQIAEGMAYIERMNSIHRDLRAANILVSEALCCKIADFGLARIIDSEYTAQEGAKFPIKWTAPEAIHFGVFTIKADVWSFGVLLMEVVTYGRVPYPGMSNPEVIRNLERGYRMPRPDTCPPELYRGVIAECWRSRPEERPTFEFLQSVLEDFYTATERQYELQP
# Procedure, shortened: as §1
# DDR1 = biological target: T3, DDR1 (Homo sapiens, UniProt Q08345)
# T3 construct: purchased Reaction Biology Corp
# T3 sequence (Q08345 19-913): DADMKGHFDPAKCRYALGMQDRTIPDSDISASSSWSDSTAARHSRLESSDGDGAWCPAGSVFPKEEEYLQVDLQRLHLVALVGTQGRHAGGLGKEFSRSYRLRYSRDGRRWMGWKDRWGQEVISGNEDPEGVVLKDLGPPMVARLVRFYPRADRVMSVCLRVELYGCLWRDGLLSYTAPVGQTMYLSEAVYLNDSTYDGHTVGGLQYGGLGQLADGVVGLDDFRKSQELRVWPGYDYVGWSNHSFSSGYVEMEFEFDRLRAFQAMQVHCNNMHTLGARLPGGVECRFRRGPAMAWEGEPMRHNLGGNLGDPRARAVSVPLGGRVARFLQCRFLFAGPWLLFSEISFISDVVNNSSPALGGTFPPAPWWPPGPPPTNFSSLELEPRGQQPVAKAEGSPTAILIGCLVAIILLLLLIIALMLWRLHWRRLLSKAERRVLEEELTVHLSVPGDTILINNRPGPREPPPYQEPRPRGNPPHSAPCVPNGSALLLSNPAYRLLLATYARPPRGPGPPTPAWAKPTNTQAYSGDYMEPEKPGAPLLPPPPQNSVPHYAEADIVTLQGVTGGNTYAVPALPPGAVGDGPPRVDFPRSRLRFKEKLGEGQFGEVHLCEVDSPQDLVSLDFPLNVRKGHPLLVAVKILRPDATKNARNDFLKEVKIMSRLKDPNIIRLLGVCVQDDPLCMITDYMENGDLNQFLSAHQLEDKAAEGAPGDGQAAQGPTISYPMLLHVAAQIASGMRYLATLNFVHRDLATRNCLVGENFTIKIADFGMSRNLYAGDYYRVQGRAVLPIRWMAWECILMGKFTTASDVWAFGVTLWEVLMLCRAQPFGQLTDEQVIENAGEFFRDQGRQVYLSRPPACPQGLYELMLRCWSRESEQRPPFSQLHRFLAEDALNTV
# Procedure, shortened: as §1
# EPHA7 = biological target: T4, EPHA7 (Homo sapiens, UniProt Q15375)
# T4 construct: purchased Reaction Biology Corp
# T4 sequence (Q15375 28-998): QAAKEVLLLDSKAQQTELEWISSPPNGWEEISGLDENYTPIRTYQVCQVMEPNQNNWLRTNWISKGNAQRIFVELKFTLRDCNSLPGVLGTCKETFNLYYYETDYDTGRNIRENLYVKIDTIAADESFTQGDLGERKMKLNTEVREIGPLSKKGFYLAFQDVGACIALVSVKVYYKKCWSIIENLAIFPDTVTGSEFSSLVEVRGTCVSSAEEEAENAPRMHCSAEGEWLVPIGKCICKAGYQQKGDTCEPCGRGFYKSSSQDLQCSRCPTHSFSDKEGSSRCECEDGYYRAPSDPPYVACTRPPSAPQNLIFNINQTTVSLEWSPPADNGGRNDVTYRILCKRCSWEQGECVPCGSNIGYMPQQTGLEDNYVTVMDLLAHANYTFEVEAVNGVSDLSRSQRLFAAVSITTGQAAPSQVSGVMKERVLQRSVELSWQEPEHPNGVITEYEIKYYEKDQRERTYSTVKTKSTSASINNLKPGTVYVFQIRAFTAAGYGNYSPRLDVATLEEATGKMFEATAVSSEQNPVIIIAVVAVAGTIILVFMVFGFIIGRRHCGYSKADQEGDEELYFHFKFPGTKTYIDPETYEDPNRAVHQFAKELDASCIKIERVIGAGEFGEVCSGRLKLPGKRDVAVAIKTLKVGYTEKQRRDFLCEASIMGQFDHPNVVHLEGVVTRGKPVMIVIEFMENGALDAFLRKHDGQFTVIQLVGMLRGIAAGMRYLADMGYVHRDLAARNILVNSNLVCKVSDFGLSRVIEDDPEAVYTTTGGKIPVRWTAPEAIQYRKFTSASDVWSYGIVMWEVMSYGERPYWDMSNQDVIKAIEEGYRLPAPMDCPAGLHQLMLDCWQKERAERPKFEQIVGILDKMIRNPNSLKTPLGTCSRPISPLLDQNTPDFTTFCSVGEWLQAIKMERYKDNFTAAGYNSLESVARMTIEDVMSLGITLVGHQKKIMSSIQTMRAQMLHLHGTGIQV
# Procedure, shortened: as §1
# IKKb/IKBKB = biological target: T5, IKKb/IKBKB (Homo sapiens, UniProt O14920)
# T5 construct: purchased Reaction Biology Corp
# T5 sequence (O14920 1-756): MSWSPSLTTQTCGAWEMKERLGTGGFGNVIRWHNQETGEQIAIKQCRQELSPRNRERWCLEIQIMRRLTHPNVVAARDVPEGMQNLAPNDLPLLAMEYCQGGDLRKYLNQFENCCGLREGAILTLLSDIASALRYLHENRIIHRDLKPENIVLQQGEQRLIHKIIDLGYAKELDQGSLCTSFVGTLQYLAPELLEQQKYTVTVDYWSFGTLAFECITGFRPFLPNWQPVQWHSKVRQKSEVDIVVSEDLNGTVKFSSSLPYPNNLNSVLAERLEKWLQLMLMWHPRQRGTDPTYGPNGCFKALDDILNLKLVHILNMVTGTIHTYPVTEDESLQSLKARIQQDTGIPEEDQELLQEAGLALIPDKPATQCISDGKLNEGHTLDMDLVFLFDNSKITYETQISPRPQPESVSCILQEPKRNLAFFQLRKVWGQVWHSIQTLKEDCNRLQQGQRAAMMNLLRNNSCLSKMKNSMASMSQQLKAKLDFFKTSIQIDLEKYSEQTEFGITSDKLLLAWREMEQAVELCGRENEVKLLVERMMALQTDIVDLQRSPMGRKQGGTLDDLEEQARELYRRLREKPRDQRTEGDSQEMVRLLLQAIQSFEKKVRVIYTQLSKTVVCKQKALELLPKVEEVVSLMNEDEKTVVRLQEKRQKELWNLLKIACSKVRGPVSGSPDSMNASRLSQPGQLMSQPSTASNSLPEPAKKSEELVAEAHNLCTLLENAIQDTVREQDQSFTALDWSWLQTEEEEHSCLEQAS
# Procedure, shortened: as §1
# MEKK2 = biological target: T6, MEKK2 (Homo sapiens, UniProt Q9Y2U5)
# T6 construct: purchased Reaction Biology Corp
# T6 sequence (Q9Y2U5 1-619): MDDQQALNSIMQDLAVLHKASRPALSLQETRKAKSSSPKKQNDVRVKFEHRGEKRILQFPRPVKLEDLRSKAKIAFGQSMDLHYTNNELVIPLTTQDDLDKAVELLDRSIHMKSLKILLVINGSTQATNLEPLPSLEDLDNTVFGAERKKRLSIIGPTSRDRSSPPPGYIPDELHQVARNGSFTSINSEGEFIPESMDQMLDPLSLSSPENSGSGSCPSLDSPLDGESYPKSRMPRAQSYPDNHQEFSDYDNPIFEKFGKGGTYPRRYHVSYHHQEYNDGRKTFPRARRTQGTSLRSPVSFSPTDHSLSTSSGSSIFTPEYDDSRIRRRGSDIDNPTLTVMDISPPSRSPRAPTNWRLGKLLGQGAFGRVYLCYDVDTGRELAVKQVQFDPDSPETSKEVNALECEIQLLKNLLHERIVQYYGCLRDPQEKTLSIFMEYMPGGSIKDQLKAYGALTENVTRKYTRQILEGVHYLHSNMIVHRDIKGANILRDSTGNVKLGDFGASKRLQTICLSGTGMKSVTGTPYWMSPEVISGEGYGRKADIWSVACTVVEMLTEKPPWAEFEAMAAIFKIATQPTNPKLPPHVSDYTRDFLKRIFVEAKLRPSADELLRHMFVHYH
# Procedure, shortened: as §1
# ROCK1 = biological target: T7, ROCK1 (Homo sapiens, UniProt Q13464)
# T7 construct: purchased Reaction Biology Corp
# T7 sequence (Q13464 whole entry): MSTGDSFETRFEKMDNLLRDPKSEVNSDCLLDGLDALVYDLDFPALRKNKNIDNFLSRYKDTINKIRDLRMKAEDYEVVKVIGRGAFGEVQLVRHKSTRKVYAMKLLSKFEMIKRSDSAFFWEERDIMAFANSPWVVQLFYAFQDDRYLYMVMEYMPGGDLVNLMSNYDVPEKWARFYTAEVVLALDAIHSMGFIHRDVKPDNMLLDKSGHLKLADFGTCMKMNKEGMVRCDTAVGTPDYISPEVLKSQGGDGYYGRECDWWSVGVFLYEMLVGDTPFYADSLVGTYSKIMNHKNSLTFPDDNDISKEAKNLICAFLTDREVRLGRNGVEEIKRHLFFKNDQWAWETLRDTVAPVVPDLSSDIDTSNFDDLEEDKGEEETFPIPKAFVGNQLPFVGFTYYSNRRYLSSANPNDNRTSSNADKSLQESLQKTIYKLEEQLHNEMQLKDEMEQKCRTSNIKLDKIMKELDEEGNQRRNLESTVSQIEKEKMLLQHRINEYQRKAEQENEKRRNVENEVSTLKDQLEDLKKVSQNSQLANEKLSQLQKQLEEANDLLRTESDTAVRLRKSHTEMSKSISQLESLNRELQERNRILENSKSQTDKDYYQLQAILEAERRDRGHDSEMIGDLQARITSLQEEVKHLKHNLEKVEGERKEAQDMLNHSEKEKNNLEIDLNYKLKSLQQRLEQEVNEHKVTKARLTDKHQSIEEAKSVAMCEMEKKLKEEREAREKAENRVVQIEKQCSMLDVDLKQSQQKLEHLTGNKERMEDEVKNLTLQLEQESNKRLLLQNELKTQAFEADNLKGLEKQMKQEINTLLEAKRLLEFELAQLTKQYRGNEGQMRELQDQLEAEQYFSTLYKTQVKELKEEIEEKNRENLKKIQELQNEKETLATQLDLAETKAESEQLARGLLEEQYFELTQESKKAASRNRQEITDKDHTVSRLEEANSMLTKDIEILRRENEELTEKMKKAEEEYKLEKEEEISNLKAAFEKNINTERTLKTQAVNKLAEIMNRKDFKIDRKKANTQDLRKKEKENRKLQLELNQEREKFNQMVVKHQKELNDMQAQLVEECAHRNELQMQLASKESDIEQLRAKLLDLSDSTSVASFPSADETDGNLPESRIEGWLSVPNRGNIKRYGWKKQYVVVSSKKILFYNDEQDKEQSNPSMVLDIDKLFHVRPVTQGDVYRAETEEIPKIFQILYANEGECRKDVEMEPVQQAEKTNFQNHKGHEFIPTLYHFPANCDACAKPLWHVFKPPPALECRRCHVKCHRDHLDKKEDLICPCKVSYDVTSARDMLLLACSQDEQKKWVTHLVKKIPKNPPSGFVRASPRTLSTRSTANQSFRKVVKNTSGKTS
# Procedure, shortened: as §1
# p70S6K/RPS6KB1 = biological target: T8, p70S6K/RPS6KB1 (Homo sapiens, UniProt P23443)
# T8 construct: purchased Reaction Biology Corp
# T8 sequence (P23443 whole entry): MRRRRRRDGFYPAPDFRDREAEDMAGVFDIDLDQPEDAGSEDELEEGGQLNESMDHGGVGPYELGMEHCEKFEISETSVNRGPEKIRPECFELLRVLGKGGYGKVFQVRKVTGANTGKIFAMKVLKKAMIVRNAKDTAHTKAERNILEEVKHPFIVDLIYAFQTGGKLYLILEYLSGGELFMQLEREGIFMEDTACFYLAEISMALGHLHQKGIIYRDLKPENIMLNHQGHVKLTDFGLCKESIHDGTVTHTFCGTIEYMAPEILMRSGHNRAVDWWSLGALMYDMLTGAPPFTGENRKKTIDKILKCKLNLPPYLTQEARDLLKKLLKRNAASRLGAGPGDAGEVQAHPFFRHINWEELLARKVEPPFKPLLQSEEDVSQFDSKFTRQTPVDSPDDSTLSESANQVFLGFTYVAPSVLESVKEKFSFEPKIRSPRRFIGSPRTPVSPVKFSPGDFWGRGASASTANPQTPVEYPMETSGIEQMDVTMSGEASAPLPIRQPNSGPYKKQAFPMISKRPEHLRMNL
# Procedure, shortened: as §1
# [1] = read-out: % Enzyme Activity (relative to DMSO controls) AVG
# [2] = read-out: % Enzyme Activity (relative to DMSO controls) Data 1
# [3] = read-out: % Enzyme Activity (relative to DMSO controls) Data 2
compound,measurement,setting,value
CC(C)(C)C(=O)N1N=CC[C@H]1c1ccccc1 [GSK′963],remaining activity at 10 µM,Aurora A; [1],102%
same,remaining activity at 10 µM,Aurora A; [2],101%
same,remaining activity at 10 µM,Aurora A; [3],102%
same,remaining activity at 10 µM,BLK; [1],113%
same,remaining activity at 10 µM,BLK; [2],112%
same,remaining activity at 10 µM,BLK; [3],113%
same,remaining activity at 10 µM,DDR1; [1],96%
same,remaining activity at 10 µM,DDR1; [2],94%
same,remaining activity at 10 µM,DDR1; [3],97.9%
same,remaining activity at 10 µM,EPHA7; [1],111%
same,remaining activity at 10 µM,EPHA7; [2],109%
same,remaining activity at 10 µM,EPHA7; [3],112%
same,remaining activity at 10 µM,IKKb/IKBKB; [1],111%
same,remaining activity at 10 µM,IKKb/IKBKB; [2],110%
same,remaining activity at 10 µM,IKKb/IKBKB; [3],112%
same,remaining activity at 10 µM,MEKK2; [1],114%
same,remaining activity at 10 µM,MEKK2; [2],114%
same,remaining activity at 10 µM,MEKK2; [3],115%
same,remaining activity at 10 µM,ROCK1; [1],105%
same,remaining activity at 10 µM,ROCK1; [2],103%
same,remaining activity at 10 µM,ROCK1; [3],106%
same,remaining activity at 10 µM,p70S6K/RPS6KB1; [1],99.1%
same,remaining activity at 10 µM,p70S6K/RPS6KB1; [2],97.4%
same,remaining activity at 10 µM,p70S6K/RPS6KB1; [3],101%
